Reference: article PMC9250534, “Synthesis and direct assay of large macrocycle diversities by combinatorial late-stage modification at picomole scale” (Nature Communications, 2022)
Numbered stars: 1 amine (or outer) side, 2 acyl side, 3 side chain; on linkers, the order of the positions; unused ones are H or OH. Bridge positions count the residues as written; N and C are the ends. Square brackets hold non-standard residues; d marks the D form. Peptide text beside a SMILES is read from it. * marks the point of attachment. ξ: configuration not given here. Pro(4S-NHCO(5-Cl-2-thienyl)) = O=C(N[C@@H]1CN[C@H](C(=O)O)C1)c1ccc(Cl)s1; ξPro(4ξ-NHCOC6H4-4-Cl) = O=C(NC1CNC(C(=O)O)C1)c1ccc(Cl)cc1; 2Thenoyl(5-Cl) = O=C(c1ccc(Cl)s1)*; Benzoyl(4-Cl) = O=C(c1ccc(Cl)cc1)*; Cysteamide = C(CS[*:3])N[*:1]; X1 = O=C(/C=C/c1ccccc1)*; Api = NC1(C(=O)O)CCNCC1; Mpa = O=C(O)CCS

Target: MDM2 (Homo sapiens, UniProt Q00987)
Assay: MDM2 binding screen: displacement of fluorescent p53 peptide probe FP53 (fluorescence polarization)
Details: for fraction fluorescent probe displaced, Screen: initial screen; for fraction fluorescent probe displaced, Screen / fraction fluorescent probe displaced, Replicate: crude macrocycle reactions; for fraction fluorescent probe displaced: crude reaction of macrocycle scaffold with Acid 14
How it was run: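 Macrocycle reaction products at a final 10 µM were tested for displacement of a p53-based fluorescent peptide from human MDM2. Fluorescence anisotropy (ex 485/em 535 nm) was read once per macrocycle at 25 °C.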

Sequence of MDM2 (Q00987 whole entry): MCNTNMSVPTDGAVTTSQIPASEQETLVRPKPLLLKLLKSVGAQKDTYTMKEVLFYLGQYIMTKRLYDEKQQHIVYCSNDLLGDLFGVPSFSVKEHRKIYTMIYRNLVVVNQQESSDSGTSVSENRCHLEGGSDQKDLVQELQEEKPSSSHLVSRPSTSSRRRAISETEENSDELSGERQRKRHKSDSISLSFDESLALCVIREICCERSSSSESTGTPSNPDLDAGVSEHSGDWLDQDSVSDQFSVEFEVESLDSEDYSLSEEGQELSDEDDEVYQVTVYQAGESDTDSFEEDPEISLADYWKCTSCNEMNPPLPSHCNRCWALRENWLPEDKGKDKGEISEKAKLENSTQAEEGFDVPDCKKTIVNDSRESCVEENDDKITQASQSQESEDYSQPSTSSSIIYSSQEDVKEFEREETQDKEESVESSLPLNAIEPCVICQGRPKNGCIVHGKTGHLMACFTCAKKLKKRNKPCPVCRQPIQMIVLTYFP

fraction fluorescent probe displaced, Screen (Acid 91)	fraction fluorescent probe displaced, Replicate (Acid 91, replicate)	fraction fluorescent probe displaced, Screen (Acid 14)	fraction fluorescent probe displaced, Replicate (Acid 14, replicate)	Structure (SMILES)	further results
0.0563	-0.0333	–	–	O=C(C=Cc1ccccc1)NC1CC2C(=O)NC(Cc3ccccc3)C(=O)NCCC(=O)NCCSSCCC(=O)N2C1 (stereo not shown) [X D5 F B2 Acid 91]	–
–	–	0.0241	0.10	O=C(NC1CC2C(=O)NC(Cc3ccccc3)C(=O)N3CCCC(C3)C(=O)NCCSSCCC(=O)N2C1)c1ccc(Cl)s1 (stereo not shown) [X D5 F B4 Acid 14]	–
–	–	–	–	O=C(NC1CC2C(=O)NC(Cc3ccccc3)C(=O)N3CCCC(C3)C(=O)NCCSSCCC(=O)N2C1)c1ccc(Cl)cc1 (stereo not shown) [X D5 F B4 Acid 25]	fraction fluorescent probe displaced, Screen (Acid 25): 0.0244; fraction fluorescent probe displaced, Replicate (Acid 25, replicate): 0.0211
–	–	0.11	-0.03	O=C1NCCSSCCC(=O)N2CC(NC(=O)c3ccc(Cl)s3)CC2C(=O)NC(Cc2ccccc2)C(=O)NCc2cccc1c2 (stereo not shown) [X D5 F B5 Acid 14]	–
–	–	–	–	O=C1NCCSSCCC(=O)N2C[C@@H](NC(=O)c3ccc(Cl)cc3)C[C@H]2C(=O)N[C@@H](Cc2ccccc2)C(=O)NCc2cccc1c2 [X D5 F B5 Acid 25]	fraction fluorescent probe displaced, Screen (Acid 25): 0.0569; fraction fluorescent probe displaced, Replicate (Acid 25, replicate): 0.0465
-0.05	-0.00827	–	–	O=C(/C=C/c1ccccc1)N[C@H]1C[C@H]2C(=O)N[C@@H](Cc3ccccc3)C(=O)NCc3cccc(c3)C(=O)NCCSSCCC(=O)N2C1 [X D5 F B5 Acid 91]	–
–	–	0.23	0.10	O=C(N[C@H]1C[C@H]2C(=O)N[C@@H](Cc3c[nH]c4ccccc34)C(=O)N3CCC[C@H]3C(=O)NCCSSCCC(=O)N2C1)c1ccc(Cl)s1 [X D5 W B1 Acid 14] ([Mpa][Pro(4S-NHCO(5-Cl-2-thienyl))]WP-Cysteamide; disulfide 1-C)	–
–	–	–	–	O=C(NC1CC2C(=O)NC(Cc3c[nH]c4ccccc34)C(=O)N3CCCC3C(=O)NCCSSCCC(=O)N2C1)c1ccc(Cl)cc1 (stereo not shown) [X D5 W B1 Acid 25] ([Mpa][ξPro(4ξ-NHCOC6H4-4-Cl)]WP-Cysteamide; disulfide 1-C; configuration not given here)	fraction fluorescent probe displaced, Screen (Acid 25): 0.22; fraction fluorescent probe displaced, Replicate (Acid 25, replicate): 0.10
–	–	0.17	0.17	O=C1CCNC(=O)C(Cc2c[nH]c3ccccc23)NC(=O)C2CC(NC(=O)c3ccc(Cl)s3)CN2C(=O)CCSSCCN1 (stereo not shown) [X D5 W B2 Acid 14]	–
0.00268	-0.0333	–	–	O=C(/C=C/c1ccccc1)N[C@H]1C[C@H]2C(=O)N[C@@H](Cc3c[nH]c4ccccc34)C(=O)NCCC(=O)NCCSSCCC(=O)N2C1 [X D5 W B2 Acid 91]	–
–	–	–	–	O=C(NC1CC2C(=O)NC(Cc3c[nH]c4ccccc34)C(=O)N3CCCC(C3)C(=O)NCCSSCCC(=O)N2C1)c1ccc(Cl)cc1 (stereo not shown) [X D5 W B4 Acid 25]	fraction fluorescent probe displaced, Screen (Acid 25): 0.09; fraction fluorescent probe displaced, Replicate (Acid 25, replicate): 0.15
0.0563	0.07	–	–	O=C(C=Cc1ccccc1)NC1CC2C(=O)NC(Cc3c[nH]c4ccccc34)C(=O)N3CCCC(C3)C(=O)NCCSSCCC(=O)N2C1 (stereo not shown) [X D5 W B4 Acid 91]	–
–	–	0.08	0.0211	O=C1NCCSSCCC(=O)N2CC(NC(=O)c3ccc(Cl)s3)CC2C(=O)NC(Cc2c[nH]c3ccccc23)C(=O)NCc2cccc1c2 (stereo not shown) [X D5 W B5 Acid 14]	–
–	–	–	–	O=C1NCCSSCCC(=O)N2C[C@@H](NC(=O)c3ccc(Cl)cc3)C[C@H]2C(=O)N[C@@H](Cc2c[nH]c3ccccc23)C(=O)NCc2cccc1c2 [X D5 W B5 Acid 25]	fraction fluorescent probe displaced, Screen (Acid 25): 0.0569; fraction fluorescent probe displaced, Replicate (Acid 25, replicate): 0.0465
-0.05	0.0168	–	–	O=C(/C=C/c1ccccc1)N[C@H]1C[C@H]2C(=O)N[C@@H](Cc3c[nH]c4ccccc34)C(=O)NCc3cccc(c3)C(=O)NCCSSCCC(=O)N2C1 [X D5 W B5 Acid 91]	–
–	–	-0.00483	0.0465	O=C1CCSSCCNC(=O)C(Cc2ccccc2)NC(=O)C2CCCN2C(=O)C2(CCN(C(=O)c3ccc(Cl)s3)CC2)N1 (stereo not shown) [X D6 B1 F Acid 14] ([Mpa][Api](2Thenoyl(5-Cl))PF-Cysteamide; disulfide 1-C; configuration not given here)	–
–	–	–	–	O=C1CCSSCCNC(=O)[C@H](Cc2ccccc2)NC(=O)[C@@H]2CCCN2C(=O)C2(CCN(C(=O)c3ccc(Cl)cc3)CC2)N1 [X D6 B1 F Acid 25] ([Mpa][Api](Benzoyl(4-Cl))PF-Cysteamide; disulfide 1-C)	fraction fluorescent probe displaced, Screen (Acid 25): 0.0569; fraction fluorescent probe displaced, Replicate (Acid 25, replicate): 0.07
-0.08	-0.11	–	–	O=C1CCSSCCNC(=O)[C@H](Cc2ccccc2)NC(=O)[C@@H]2CCCN2C(=O)C2(CCN(C(=O)/C=C/c3ccccc3)CC2)N1 [X D6 B1 F Acid 91] ([Mpa][Api](X1)PF-Cysteamide; disulfide 1-C)	–
–	–	0.08	0.07	O=C1CCSSCCNC(=O)[C@H](Cc2c[nH]c3ccccc23)NC(=O)[C@@H]2CCCN2C(=O)C2(CCN(C(=O)c3ccc(Cl)s3)CC2)N1 [X D6 B1 W Acid 14] ([Mpa][Api](2Thenoyl(5-Cl))PW-Cysteamide; disulfide 1-C)	–
-0.05	0.04	–	–	O=C1CCSSCCNC(=O)[C@H](Cc2c[nH]c3ccccc23)NC(=O)[C@@H]2CCCN2C(=O)C2(CCN(C(=O)/C=C/c3ccccc3)CC2)N1 [X D6 B1 W Acid 91] ([Mpa][Api](X1)PW-Cysteamide; disulfide 1-C)	–
–	–	0.08	0.0465	O=C1CCNC(=O)C2(CCN(C(=O)c3ccc(Cl)s3)CC2)NC(=O)CCSSCCNC(=O)[C@H](Cc2ccccc2)N1 [X D6 B2 F Acid 14]	–
–	–	–	–	O=C1CCNC(=O)C2(CCN(C(=O)c3ccc(Cl)cc3)CC2)NC(=O)CCSSCCNC(=O)[C@H](Cc2ccccc2)N1 [X D6 B2 F Acid 25]	fraction fluorescent probe displaced, Screen (Acid 25): 0.0244; fraction fluorescent probe displaced, Replicate (Acid 25, replicate): 0.0211
-0.0241	-0.00827	–	–	O=C1CCNC(=O)C2(CCN(C(=O)/C=C/c3ccccc3)CC2)NC(=O)CCSSCCNC(=O)[C@H](Cc2ccccc2)N1 [X D6 B2 F Acid 91]	–
–	–	0.17	0.20	O=C1CCNC(=O)C2(CCN(C(=O)c3ccc(Cl)s3)CC2)NC(=O)CCSSCCNC(=O)[C@H](Cc2c[nH]c3ccccc23)N1 [X D6 B2 W Acid 14]	–
0.19	0.09	–	–	O=C1CCNC(=O)C2(CCN(C(=O)/C=C/c3ccccc3)CC2)NC(=O)CCSSCCNC(=O)[C@H](Cc2c[nH]c3ccccc23)N1 [X D6 B2 W Acid 91]	–
–	–	–	–	O=C1CCSSCCNC(=O)[C@H](Cc2ccccc2)NC(=O)[C@H]2CCCN(C2)C(=O)C2(CCN(C(=O)c3ccc(Cl)s3)CC2)N1 [X D6 B4 F + Acid 14]	fraction fluorescent probe displaced ((initial screen)): -0.00483; fraction fluorescent probe displaced (replicate): 0.10
